Results as given in patent USRE47350E1, “Pharmaceutical formulations containing dopamine receptor ligands” (Richter Gedeon Nyrt., priority 2008, dated 2019).
Like-named read-outs stand apart in the source and are kept apart here.

Legend:
[1] = Hydrolytic degradation when formulated with commonly used excipients (general statements); type: physicochemical
From the text: The formation of a degradation product such as De-BOC in a pharmaceutical formulation is detrimental to activity. Moreover, if the amount of degradation product exceeds FDA guidelines, additional safety and toxicology testing must be undertaken. Thus, it is important that stable and bioavailable formulations containing, for example, cariprazine and its salts, be developed, in which the amount of degradation product present falls within accepted FDA guidelines.
The preparation of stable and bioavailable dosage forms containing compounds of formula (I) is; however, not straightforward.

[2] = Double-blind placebo controlled single dose pharmacokinetic study of cariprazine capsules in healthy male volunteers (Example 4); type: in vivo, human; conditions: for Cmax / Tmax / half-life / AUC(0-t): male, human, plasma, oral; for AUC(0-t): read-out: AUC0-168
Procedure: The pharmacokinetic parameters described herein include area under the plasma concentration-time curve (AUC0-t and AUC0-∞), maximum plasma concentration (Cmax), time of maximum plasma concentration (Tmax) and terminal elimination half-life (T1/2). The time of maximum concentration, Tmax, is determined as the time corresponding to Cmax. Area under the plasma concentration-time curve up to the time corresponding to the last measurable concentration (AUC0-t) is calculated by numerical integration using the linear trapezoidal rule as follows: The terminal half-life (T1/2) is calculated using the following equation: The area under the plasma concentration-time curve from time zero to infinity is calculated according to the following equation: A double-blind, placebo controlled single dose study of the pharmacokinetic parameters of cariprazine (capsules) in healthy male volunteers was conducted. [table] The composition of the capsules is given below in Table 31. The mean pharmacokinetic parameters observed after administration of a single dose of 0.5 to 2.5 mg cariprazine are shown below in Table 32.

[3] = Multiple dose study in healthy male volunteers (Example 6); type: in vivo; conditions: human, plasma, fasted; for AUC: read-out: AUC0-τ
Procedure: Thirty-two healthy male subjects (mean age=24.9 years) were randomized into 4 groups (I-IV). In each group, 2 subjects received placebo and 6 subjects received one of the following treatments: • (I) 7 doses of 0.5 mg cariprazine administered every other day; • (II) 14 doses of 0.5 mg cariprazine every day; • (III) 2 doses of 0.5 mg cariprazine followed by 12 doses of 1.0 mg cariprazine every day; and • (IV) 21 doses of 1.0 mg cariprazine every day. Plasma samples were analyzed for cariprazine by a validated LC-MS/MS assay (Internal Standards: deuterated compounds; Sample preparation: Liquid-liquid extraction after alkalization; Sample Volume: 1 mL; Calibration Range: 0.05-25 ng/mL; Inonization: +ESI with MRM mode). The design of the study is shown below in Table 35. [table]

[4] = Linear calculated pharmacokinetic parameters (Table 33); type: in vivo; conditions: human, plasma, po; for AUC(0-t): read-out: Mean AUC0-168
Procedure: Linear calculated pharmacokinetic parameters (based on the 2.0 mg data (Table 35, 80% of AUClast, Treatment I) for dosages greater than 2.0 mg and on the 0.5 mg data for dosages lower than 0.5 mg (Table 33) are shown in Table 33.

[5] = Single-center, randomized, open-label, parallel-group single-dose study, 2-mg tablet fasted/fed (Example 5); type: in vivo; conditions: both sexes, human, plasma, po, mean, single oral 2-mg tablet; for half-life: read-out: T½ (converted)
Procedure: The objectives of this study were (i) to assess the effect of food on the oral bioavailability of cariprazine (2-mg tablet), (ii) to assess the effect of gender on the oral bioavailability of cariprazine after a single oral dose (2-mg tablet), and (iii) to evaluate the pharmacokinetics of cariprazine and its metabolites after an oral dose (2-mg tablet). This clinical study was conducted as a single-center, randomized, open-label, parallel-group single-dose study. A total of 42 healthy male and female patients aged 18-45 years were selected, with an approximate male-to-female ratio of 1:1. Dosing occurred in two treatment sessions (Treatment 1 and Treatment 2) separated by 5 to 7 days. The subjects were randomized with ˜1:1 male-female ratio to receive one of the following two treatments: • Treatment 1: • Single oral dose of one 2-mg cariprazine tablet under fasted conditions (12 female, 11 male subjects) • Treatment 2: • Single oral dose of one 2-mg cariprazine tablet under fed conditions (10 female, 9 male subjects) Subjects were given the study drug with 240 mL of water in the clinic under fed/fasted conditions at 0800 hours on Day 1. Subjects taking Treatment 1 underwent a 10-hour overnight fast before dosing on Day 1 and continued fasting for an additional 4 hours postdose. Subjects taking Treatment 2 underwent a 10-hour overnight fast before eating a US Food and Drug Administration standardized high-fat breakfast at 0730 hours on Dosing Day 1. This study was 30 days in duration (Day −1 through the last pharmacokinetic (PK) blood sample collection on Day 29). Blood sampling was performed at the following times to determine cariprazine plasma concentrations: 0.0 (predose), 0.5, 1, 2, 3, 4, 6, 8, 12, 24, 36, 48, 72, 96, 168, 336, 504 and 672 hours postdose.

[6] = 0.5 mg, Group I: 7 doses of 0.5 mg every other day
[7] = 0.5 mg, Group II: 14 doses of 0.5 mg every day
[8] = 1 mg, Group IV: 21 doses of 1.0 mg every day
[9] = Group III: 2 doses of 0.5 mg followed by 12 doses of 1.0 mg every day
[10] = mean, single dose 0.5 mg capsules, fasted, Group III Period 1
[11] = mean, single dose 1 mg capsules, fasted, Group I Period 1
[12] = mean, single dose 1.5 mg capsules, fasted, Group II Period 2
[13] = mean, single dose 2 mg capsules, fasted, Group I Period 2
[14] = mean, single dose 2.5 mg capsules, fasted, Group II Period 1

Structure (SMILES): CN(C)C(=O)N[C@H]1CC[C@H](CCN2CCN(c3cccc(Cl)c3Cl)CC2)CC1.Cl [cariprazine hydrochloride, trans-1{4-[2-[4-(2,3-dichlorophenyl)-piperazin-1-yl]-ethyl]-cyclohexyl}-3,3-dimethyl-urea hydrochloride]
- stability toward hydrolytic degradation product formation [1]: undergoes hydrolytic cleavage of the amide bond
- dose proportionality of exposure relative to mean AUC ([2]; single-dose range of 0.5 mg to 2.5 mg): approximate dose proportionality

Structure (SMILES): CN(C)C(=O)N[C@H]1CC[C@H](CCN2CCN(c3cccc(Cl)c3Cl)CC2)CC1 [cariprazine, trans-1{4-[2-[4-(2,3-dichlorophenyl)-piperazin-1-yl]-ethyl]-cyclohexyl}-3,3-dimethyl-urea]
- Cmax [3, 6]: 1.03 ng/mL
- AUC [3, 6]: 32.9 ng·h/mL
- Tmax ([3]; 0.5 mg, Group I: 7 doses of 0.5 mg every other day, read-out: tmax): 4 h
- Cmax [3, 7]: 1.42 ng/mL
- AUC [3, 7]: 25 ng·h/mL
- Tmax ([3]; 0.5 mg, Group II: 14 doses of 0.5 mg every day, read-out: tmax): 3.5 h
- Cmax [3, 8]: 3.9 ng/mL
- AUC [3, 8]: 56.8 ng·h/mL
- Tmax ([3]; 1 mg, Group IV: 21 doses of 1.0 mg every day, read-out: tmax (range only printed)): 2 to 3 h
- Cmax [3, 9]: 3.19 ng/mL
- AUC [3, 9]: 53.6 ng·h/mL
- Tmax ([3]; Group III: 2 doses of 0.5 mg followed by 12 doses of 1.0 mg every day, read-out: tmax): 4 h
- Cmax ([4]; dose 0.1 mg): 0.03 ng/mL
- AUC(0-t) ([4]; dose 0.1 mg): 2.82 ng·h/mL
- Cmax ([4]; dose 0.25 mg): 0.09 ng/mL
- AUC(0-t) ([4]; dose 0.25 mg): 1.05 ng·h/mL
- Cmax ([4]; dose 3 mg): 3.8 ng/mL
- AUC(0-t) ([4]; dose 3 mg): 96.8 ng·h/mL
- Cmax ([4]; dose 4.5 mg): 5.7 ng/mL
- AUC(0-t) ([4]; dose 4.5 mg): 145 ng·h/mL
- Cmax ([4]; dose 5 mg): 6.33 ng/mL
- AUC(0-t) ([4]; dose 5 mg): 161 ng·h/mL
- Cmax ([4]; dose 6 mg): 7.6 ng/mL
- AUC(0-t) ([4]; dose 6 mg): 194 ng·h/mL
- Cmax ([4]; dose 7.5 mg): 9.5 ng/mL
- AUC(0-t) ([4]; dose 7.5 mg): 242 ng·h/mL
- Cmax ([4]; dose 9 mg): 11.4 ng/mL
- AUC(0-t) ([4]; dose 9 mg): 290 ng·h/mL
- Cmax ([4]; dose 12.5 mg): 15.8 ng/mL
- AUC(0-t) ([4]; dose 12.5 mg): 404 ng·h/mL
- Cmax ([4]; dose 15 mg): 19 ng/mL
- AUC(0-t) ([4]; dose 15 mg): 484 ng·h/mL
- Cmax [2, 10]: 0.14 ng/mL
- Tmax [2, 10]: 6 h
- half-life [2, 10]: 217 h
- AUC(0-t) [2, 10]: 14.1 ng·h/mL
- Cmax [2, 11]: 0.76 ng/mL
- Tmax [2, 11]: 3 h
- half-life [2, 11]: 185 h
- AUC(0-t) [2, 11]: 35.4 ng·h/mL
- Cmax [2, 12]: 1.19 ng/mL
- Tmax [2, 12]: 3 h
- half-life [2, 12]: 130 h
- AUC(0-t) [2, 12]: 46.7 ng·h/mL
- Cmax [2, 13]: 2.53 ng/mL
- Tmax [2, 13]: 3 h
- half-life [2, 13]: 130 h
- AUC(0-t) [2, 13]: 95.3 ng·h/mL
- Cmax [2, 14]: 2.5 ng/mL
- Tmax [2, 14]: 4 h
- half-life [2, 14]: 138 h
- AUC(0-t) [2, 14]: 97.5 ng·h/mL
- Tmax ([2]; single dose 0.5 to 2.5 mg): 3 to 6 h
- AUC(0-inf) ([5]; Fed): 97 ng·h/mL
- AUC(0-t) ([5]; Fed): 89.2 ng·h/mL
- Cmax ([5]; Fed): 1.72 ng/mL
- Tmax ([5]; Fed): 9.21 h
- half-life ([5]; Fed): 198 h
- AUC(0-inf) ([5]; Treatment 1 (Fasted)): 89.9 ng·h/mL
- AUC(0-t) ([5]; Treatment 1 (Fasted)): 80.7 ng·h/mL
- Cmax ([5]; Treatment 1 (Fasted)): 1.99 ng/mL
- Tmax ([5]; Treatment 1 (Fasted)): 4.91 h
- half-life ([5]; Treatment 1 (Fasted)): 203 h
